From US20060172993A1 (priority 2002, published 2006)
Marks after values point to notes of the source that are not given here.

What was measured:
Format in all cases: in vivo, human
[1] = tested on: Patients diagnosed with Alzheimer's Disease; assay: ADCS/ADL scale (Activities of Daily Living)
From the text: (§1) Subjects in the Placebo group received 21 weeks (5 months) of placebo medication.
The ADCS/ADL scale is a 23-item informant-based assessment scale measuring widely applicable daily activities appropriate for patients in the mild to moderate category of Alzheimer's Disease. The 23 items were selected for measurement from the larger set of 45 items studied by Galasko et al (Alzheimer Disease and Associated Disorders, Vol 11, Suppl. 2, 1997). These individual items were scored from 0-3 to […], depending on the question, with a possible total score of 78. A higher score indicated a higher functioning patient.
The items and scoring were as follows: • Eating (0-3) • Walking (0-3) • Toileting (0-3) • Bathing (0-3) • Grooming (0-3) • Dressing • selection of clothes (0-3) • physical performance (0-4) • Telephone (0-5) • Television (0-3) • Conversation (0-3) • Dishes (0-3) • Managing personal belongings (0-3) • Obtaining beverages (0-3) • Making a meal or snack (0-4) • Disposal of garbage (0-3) • Travel outside home (0-4) • Shopping (0-4) • Keeping appointments (0-3) • Ability to be left alone (0-3) • Current events (0-3) • Reading (0-2) • Writing (0-3) • Hobbies (0-3) • Household appliances (0-4)
An additional secondary indication captures overall changes in Activities of daily Living (ADL) performances as measured by the Alzheimer's Disease Cooperative Study Activities of Daily Living (ACDS/ADL) scale. As mentioned above this scale is comprised of 23 items that have been tested and validated in patients with mild to moderately severe Alzheimer's disease.

[2] = tested on: Patients diagnosed with Alzheimer's Disease; assay: ADAS-cog/11 cognitive subscale, 5-month placebo-controlled trial; settings: for ADAS-cog/11 responders, change ≦ 0 points, % / ADAS-cog/11 responders, change ≦ −4 points, % / ADAS-cog/11 responders, change ≦ −7 points, % / ADAS-cog/11 responders, change ≦ −10 points, %: Month 5
From the text: as §1
The ADAS consists of two parts—a cognitive subscale and a behavioral subscale. The behavioral subscale was not be used in this study. The cognitive subscale, the ADAS--cog-11, consisted of Word Recall and Word Recognition memory tests, Object and Finger Naming, Commands, Constructional Praxis, Ideational Praxis, Orientation, Remembering Test Instructions, Spoken language Ability, Comprehension of Spoken language and Word Finding Difficulty was the primary variable in this study.
The ADAS was performed at visits 1, 2, 3, 4 and 5 (screening, baseline, week 4, week 13 and month 5 or upon early discontinuation of trial medication intake). For word recall and word recognition two parallel wordlists, list A and list B were employed. List A was used at visits 1 and 3, List B at visits 2, 4, and 5 or upon early discontinuation of trial medication intake. For practical reasons the words for word recognition was presented only once. The total score of the 11 cognitive items on the original ADAS cognitive subscale (ADAS-cog/11, Range: 0-70) was recorded.
Between treatment groups comparisons (with particular focus on differences from placebo) were done at each scheduled time interval and for each endpoint imputation scheme. These comparisons will be based on the change from baseline scores for efficacy parameters with baseline (e.g., ADAS-cog/11) and the original scored for efficacy parameters without baseline e.g., CIBIC-plus).
For continuous data, a two-way analysis of variance (ANOVA) model with treatment and investigator as factors were used to compare the treatment groups for the change from baseline data. The interaction between treatment and investigator was examined. The impact of the baseline score on change from baseline was evaluated. […] If the parametric methods were deemed inappropriate (normality assumption violated), nonparametric methods such as two-way ANOVA on ranked data, Van Elteren test, controlling for investigator, was used. Following ANOVA, Fisher's LSD procedure was used for pairwise comparisons between each galanthamine group and the placebo group. A linear contrast on the main effect for treatment was used to test the dose response relationship.

[3] = tested on: Patients diagnosed with Alzheimer's Disease; assay: Discontinuation of trial medication
[4] = tested on: Patients diagnosed with Alzheimer's Disease; assay: Neuropsychiatric Inventory (NPI)
From the text: as §1
Neuropsychiatric behavior was monitored by a test known as The Neuropsychiatric Inventory (NPI) (Cummings, J. L. et al., Neurology, 44: 2308-2314, 1994). The NPI covers 10 domains of behaviors reported in patients with Alzheimer's Disease: delusions, hallucinations, agitation/aggression, dysphoria, anxiety, euphoria, apathy, disinhibition, irritability/lability and aberrant motor behavior. For each domain abnormal behavior can be absent (score 0) or present. If present, the frequency and severity of abnormal behavior is rated based on answers to a set of subquestions regarding behaviors relevant to that domain. Severity was rated 1 to 3 as mild, moderate or marked. Frequency was rated 1 to 4 as occasionally, often, frequently and very frequently. The product of frequency and severity (maximum score=12) was calculated for each domain. A total of NPI was calculated as the sum of the frequency and severity products (maximum score=120). The NPI was performed at visits 2, 3, 4 and 5 (baseline, week 4, week 13, and month 5 or upon early discontinuation of trial medication).

SMILES: COc1ccc2c3c1O[C@H]1C[C@@H](O)C=C[C@@]31CCN(C)C2 [GAL, galantamine]
- Change in Total ADL score from baseline at Month 5, Mean ([1]; 8 mg/day, LOCF): −3.2
- Change in Total ADL score from baseline at Month 5, Mean ([1]; 8 mg/day, observed case): −3.1
- Change in Total ADL score from baseline at Month 5, Mean ([1]; 16 mg/day, LOCF): −0.7
- Change in Total ADL score from baseline at Month 5, Mean ([1]; 16 mg/day, observed case): −0.5
- Change in Total ADL score from baseline at Month 5, Mean ([1]; 24 mg/day, LOCF): −1.5
- Change in Total ADL score from baseline at Month 5, Mean ([1]; 24 mg/day, observed case): −1.6
- Change from baseline in ADAS-cog/11 at Month 5, Mean ([2]; 8 mg/day, LOCF): 0.4
- ADAS-cog/11 responders, change ≦ 0 points, % ([2]; 8 mg/day): (46.5) %
- ADAS-cog/11 responders, change ≦ −4 points, % ([2]; 8 mg/day): (25.7) %
- ADAS-cog/11 responders, change ≦ −7 points, % ([2]; 8 mg/day): (13.9) %
- ADAS-cog/11 responders, change ≦ −10 points, % ([2]; 8 mg/day): (5.9) %
- Change from baseline in ADAS-cog/11 at Month 5, Mean ([2]; 8 mg/day, observed case): 0.1
- Change from baseline in ADAS-cog/11 at Month 5, Mean ([2]; 16 mg/day, LOCF): −1.4
- ADAS-cog/11 responders, change ≦ 0 points, % ([2]; 16 mg/day): (65.4)***^‡ %
- ADAS-cog/11 responders, change ≦ −4 points, % ([2]; 16 mg/day): (35.6)***♦ %
- ADAS-cog/11 responders, change ≦ −7 points, % ([2]; 16 mg/day): (15.9)** %
- ADAS-cog/11 responders, change ≦ −10 points, % ([2]; 16 mg/day): (7.2) %
- ADAS-cog/11 responders, change ≦ −7 points, % ([2]; 16 mg/day, listed as galantamine): 15.9%
- Change from baseline in ADAS-cog/11 at Month 5, Mean ([2]; 16 mg/day, observed case): −1.5
- Change from baseline in ADAS-cog/11 at Month 5, Mean ([2]; 24 mg/day, LOCF): −1.4
- ADAS-cog/11 responders, change ≦ 0 points, % ([2]; 24 mg/day): (64.9)***^‡ %
- ADAS-cog/11 responders, change ≦ −4 points, % ([2]; 24 mg/day): (37.0)***^† %
- ADAS-cog/11 responders, change ≦ −7 points, % ([2]; 24 mg/day): (22.3)***♦♦ %
- ADAS-cog/11 responders, change ≦ −10 points, % ([2]; 24 mg/day): (10.4)** %
- ADAS-cog/11 responders, change ≦ −7 points, % ([2]; 24 mg/day, listed as galantamine): 22.3%
- Change from baseline in ADAS-cog/11 at Month 5, Mean ([2]; 24 mg/day, observed case): −1.8
- DC due to adverse event, % ([3]; 8 mg/day): 6%
- Total discontinued (DC), % ([3]; 8 mg/day): 23%
- DC due to adverse event, % ([3]; 16 mg/day): 7%
- Total discontinued (DC), % ([3]; 16 mg/day): 22%
- DC due to adverse event, % ([3]; 24 mg/day): 10%
- Total discontinued (DC), % ([3]; 24 mg/day): 22%
- Change in Total NPI score from baseline at Month 5, Mean ([4]; 8 mg/day, LOCF): 2.3
- Change in Total NPI score from baseline at Month 5, Mean ([4]; 8 mg/day, observed case): 2.3
- Change in Total NPI score from baseline at Month 5, Mean ([4]; 16 mg/day, LOCF): −0.1
- Change in Total NPI score from baseline at Month 5, Mean ([4]; 16 mg/day, observed case): −0.1
- Change in Total NPI score from baseline at Month 5, Mean ([4]; 24 mg/day, LOCF): −0.0
- Change in Total NPI score from baseline at Month 5, Mean ([4]; 24 mg/day, observed case): −0.1
